Data as given in US10160771B2, “Hepatitis C virus inhibitors and uses thereof in preparation of drugs” (priority 2014, dated 2018).
pEC50: −log10 of the molar value.

Experiments:
[1] = test system: HCV genotype 1a (HCV-1a) replicon cells; assay: HCV genotype 1a replicon luciferase assay (EC50); format: cell-based, hepatitis C virus genotype 1a (H77 clone); conditions: Hepatitis C virus, 72 h, 3 days, luciferase (Bright-Glo)
Method in brief: (§1)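 H77-derived 1a (K1691R, K2040R, S2204I) or Con1-derived 1b (E1202G, T1280I, K1846T) luciferase replicon cells, 8000/well, exposed 3 days at 37° C. to 6-point 5-fold dilutions (top 100, 10 or 1 nM; 0.5% DMSO), in duplicate. Bright-Glo luminescence read; EC50 from nonlinear fit of % inhibition.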

[2] = test system: HCV genotype 1b (HCV-1b) replicon cells; assay: HCV genotype 1b replicon luciferase assay (EC50); format: cell-based, hepatitis C virus genotype 1b (Con1 clone); conditions: Hepatitis C virus, 72 h, 3 days, luciferase (Bright-Glo)
Method in brief: as §1

[3] = Cell Titer-fluor cell activity assay in HCV-1b replicon cells (CC50); format: cell-based
Method in brief: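 Con1 genotype 1b replicon cells (E1202G, T1280I, K1846T adaptive mutations), 8000 cells/well, exposed to 6-point 5-fold dilutions from 100, 10 or 1 nM top concentration in 0.5% DMSO, duplicate wells, 3 days at 37 °C. Viability read by Cell Titer-fluor (Ex 405/Em 515 nm) after 30 min; CC50 from nonlinear fit of inhibition %.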

Row | SMILES | pEC50 [1] | pEC50 [2] | CC50 at 3 days [3] [nM]
1 | COC(=O)N[C@H](C(=O)N1CCCC1c1ccc(-c2ccc(-c3ccc(-c4cnc([C@@H]5CCCN5C(=O)[C@@H](NC(=O)OC)C5CCOC5)[nH]4)cc3)cc2)[nH]1)C(C)C (stereo partly drawn) [AG_054] | 9.00 to 10.00 | 10.00 to 12.00 | > 10
2 | COC(=O)N[C@H](C(=O)N1CCC[C@H]1c1ncc(-c2ccc(-c3ccc(-c4cnc(C5C6CCC(C6)[C@H]5C(=O)NC(C)c5cccnc5)[nH]4)cc3)cc2)[nH]1)[C@@H](C)OC (stereo partly drawn) [AA_251_A] | 9.00 to 10.00 | 9.00 to 10.00 | > 1
3 | COC(=O)N[C@H](C(=O)N1CCC[C@H]1c1cnc(-c2ccc(-c3ccc(-c4ncc(C5C6CCC(C6)[C@@H]5C(=O)N(NC(=O)OC)C(C)C)[nH]4)cc3)cc2C)[nH]1)C(C)C (stereo partly drawn) [AA_169_B] | 7.00 to 8.00 | 10.00 to 12.00 | > 5
4 | COC(=O)N[C@H](C(=O)N1CCC[C@H]1c1ncc(-c2ccc(-c3ccc(-c4cnc([C@@H]5C6CCC(C6)[C@H]5C(=O)N(C)c5ccccn5)[nH]4)cc3)cc2)[nH]1)C(C)C (stereo partly drawn) [AA_195_B] | 8.00 to 9.00 | 10.00 to 12.00 | > 1
5 | COC(=O)N[C@H](C(=O)N1CCC[C@H]1c1ncc(-c2ccc(-c3ccc(-c4cnc(C5C6CCC(C6)[C@H]5C(=O)N[C@H](C)c5cccnc5)[nH]4)cc3)cc2)[nH]1)[C@@H](C)OC (stereo partly drawn) [AA_253_B] | 7.00 to 8.00 | 9.00 to 10.00 | > 1
6 | COC(=O)N[C@H](C(=O)N1CCC[C@H]1c1ncc(-c2ccc(-c3ccc(-c4[nH]c([C@@H]5CCCN5C(=O)[C@@H](NC(=O)OC)C(C)C)c5c4COC5)cc3)cc2)[nH]1)C(C)C [AG_060_B] | 10.00 to 12.00 | 10.00 to 12.00 | > 10
7 | COC(=O)N[C@H](C(=O)N1CCC[C@H]1c1ncc(-c2ccc(-c3ccc(-c4cnc(C5C6CCC(C6)[C@@H]5C(=O)NCCc5ccncc5)[nH]4)cc3)cc2)[nH]1)[C@@H](C)OC (stereo partly drawn) [AA_266_A] | 8.00 to 9.00 | 9.00 to 10.00 | > 1
8 | COC(=O)N[C@H](C(=O)N1CCC[C@H]1c1ncc(-c2ccc(-c3ccc(-c4cnc([C@H]5C6CCC(C6)[C@@H]5C(=O)NCc5cccnc5)[nH]4)cc3)c(F)c2)[nH]1)C(C)C (stereo partly drawn) [AA_197_A] | 8.00 to 9.00 | 10.00 to 12.00 | > 1
9 | COC(=O)N[C@H](C(=O)N1CCC[C@H]1c1ncc(-c2ccc(-c3ccc(-c4cnc(C5CCCC[C@@H]5C(=O)N(NC(=O)OC)C(C)C)[nH]4)cc3F)cc2)[nH]1)C(C)C (stereo partly drawn) [AA_117] | 7.00 to 8.00 | 9.00 to 10.00 | > 10
10 | COC(=O)N[C@H](C(=O)N1CCC[C@H]1c1ccc(-c2ccc(-c3ccc(-c4cnc([C@@H]5CCCN5C(=O)[C@@H](NC(=O)OC)[C@@H](C)OC)[nH]4)cc3)cc2)[nH]1)C(C)C [AG_061_A] | 9.00 to 10.00 | 10.00 to 12.00 | > 1
11 | COC(=O)N[C@H](C(=O)N1CC2(CC2)C[C@H]1c1ncc(-c2ccc(-c3ccc(-c4[nH]c([C@@H]5CCCN5C(=O)[C@@H](NC(=O)OC)[C@@H](C)OC)c5c4COC5)cc3)cc2)[nH]1)C(C)C [AG_117] | 9.00 to 10.00 | 10.00 to 12.00 | > 1
12 | COC(=O)N[C@H](C(=O)N1CCC[C@H]1c1ncc(-c2ccc(-c3ccc(-c4cnc([C@@H]5C6CCC(C6)[C@H]5C(=O)NC(CO)c5ccccn5)[nH]4)cc3)cc2)[nH]1)C(C)C (stereo partly drawn) [AA_243_B] | 9.00 to 10.00 | 10.00 to 12.00 | > 1
13 | COC(=O)N[C@H](C(=O)N1CCC[C@H]1c1ncc(-c2ccc(-c3ccc(-c4cnc([C@H]5C6CCC(C6)[C@@H]5C(=O)NCc5cncnc5)[nH]4)cc3)cc2)[nH]1)C(C)C (stereo partly drawn) [AA_201_A] | 9.00 to 10.00 | 10.00 to 12.00 | > 1
14 | COC(=O)N[C@H](C(=O)N1CCC[C@H]1c1ncc(-c2ccc(-c3ccc(-c4cnc(C5C6CCC(C6)[C@@H]5C(=O)N(NC(=O)OC)C(C)C)[nH]4)cc3)cc2)[nH]1)C(C)C (stereo partly drawn) [AA_121_A] | 7.00 to 8.00 | 8.00 to 9.00 | > 10
15 | COC(=O)N[C@H](C(=O)N1CCCC1c1ncc(-c2ccc(-c3ccc(-c4[nH]c(C5CCCN5C(=O)[C@@H](NC(=O)OC)C(C)C)c5c4CCCC5)cc3)cc2)[nH]1)C(C)C (stereo partly drawn) [AG_014] | 7.00 to 8.00 | 9.00 to 10.00 | > 10
16 | COC(=O)N[C@H](C(=O)N1CCC[C@H]1c1ncc(-c2ccc(-c3ccc(-c4cnc([C@H]5C6CCC(C6)[C@@H]5C(=O)NCc5ccco5)[nH]4)cc3)cc2)[nH]1)C(C)C (stereo partly drawn) [AA_198_A] | 8.00 to 9.00 | 10.00 to 12.00 | > 1
17 | COC(=O)N[C@H](C(=O)N1CCC[C@H]1c1ncc(-c2ccc(-c3ccc(-c4cnc(C5C6CCC(C6)[C@@H]5C(=O)NCc5cccc(N)c5)[nH]4)cc3)cc2)[nH]1)[C@@H](C)OC (stereo partly drawn) [AA_226] | 7.00 to 8.00 | 10.00 to 12.00 | > 1
18 | COC(=O)N[C@H](C(=O)N1CCC[C@H]1c1ncc(-c2ccc(-c3ccc(-c4cnc([C@H]5CCCC[C@@H]5C(=O)NCc5cncc(C)c5)[nH]4)cc3)cc2)[nH]1)C(C)C [AA_184] | 7.00 to 8.00 | 9.00 to 10.00 | > 5
19 | COC(=O)N[C@H](C(=O)N1CCC[C@H]1c1ncc(-c2ccc(-c3ccc(-c4cnc(C5C6CCC(C6)[C@@H]5C(=O)NCc5cccnc5C5CC5)[nH]4)cc3)cc2)[nH]1)[C@@H](C)OC (stereo partly drawn) [AA_256_A] | 7.00 to 8.00 | 10.00 to 12.00 | > 1
20 | COC(=O)N[C@H](C(=O)N1CCC[C@H]1c1ncc(-c2ccc(-c3ccc(-c4cnc(C5CC6(C[C@@H]5C(=O)N(NC(=O)OC)C(C)C)OCCO6)[nH]4)cc3)cc2)[nH]1)C(C)C (stereo partly drawn) [AA_160] | 8.00 to 9.00 | 10.00 to 12.00 | > 50
21 | COC(=O)N[C@H](C(=O)N1CCC[C@H]1c1ncc(-c2ccc(-c3ccc(-c4[nH]c(C5CCCN5C(=O)[C@@H]5COC(=O)N5)c5c4CCC5)cc3)cc2)[nH]1)C(C)C (stereo partly drawn) [AG_084_A] | 8.00 to 9.00 | 9.00 to 10.00 | > 1
22 | COC(=O)N[C@H](C(=O)N1CCC[C@H]1c1ncc(-c2ccc(-c3ccc(-c4cnc(C5CC(F)(F)C[C@H]5C(=O)N(NC(=O)OC)C(C)C)[nH]4)cc3)cc2)[nH]1)C(C)C (stereo partly drawn) [AA_138] | 7.00 to 8.00 | 8.00 to 9.00 | > 100
23 | COC(=O)N[C@H](C(=O)N1CCC[C@H]1c1ncc(-c2ccc(-c3ccc(-c4cnc(C5C6CCC(C6)[C@@H]5C(=O)N[C@H](c5cccnc5)C(C)C)[nH]4)cc3)cc2)[nH]1)[C@@H](C)OC (stereo partly drawn) [AA_267_A] | 9.00 to 10.00 | 10.00 to 12.00 | > 1
24 | COC(=O)N[C@H](C(=O)N1CCC[C@H]1c1ncc(-c2ccc(-c3ccc(-c4cnc(C5C6CCC(C6)[C@@H]5C(=O)N(NC(=O)OC)C(C)C)[nH]4)cc3)c(C)c2)[nH]1)C(C)C (stereo partly drawn) [AA_167] | 8.00 to 9.00 | 10.00 to 12.00 | > 1
25 | COC[C@H](NC(=O)OC)C(=O)N1CCC[C@H]1c1ncc(-c2ccc(-c3ccc(-c4[nH]c([C@@H]5CCCN5C(=O)[C@@H](NC(=O)OC)C(C)OC)c5c4COC5)cc3)cc2)[nH]1 (stereo partly drawn) [AG_113] | 9.00 to 10.00 | 10.00 to 12.00 | > 1
26 | COC(=O)N[C@H](C(=O)N1CCC[C@H]1c1[nH]c(-c2ccc(-c3ccc(-c4cnc([C@@H]5CCCN5C(=O)[C@@H](NC(=O)OC)[C@@H](C)O)[nH]4)cc3)cc2)c2c1CCC2)C(C)C [AG_090] | 8.00 to 9.00 | 10.00 to 12.00 | > 1
27 | COC(=O)N[C@H](C(=O)N1CCC[C@H]1c1ncc(-c2ccc(-c3ccc(-c4cnc(C5C6CCC(C6)[C@H]5C(=O)NCc5ccc(OC)nc5)[nH]4)cc3)cc2)[nH]1)[C@@H](C)OC (stereo partly drawn) [AA_223_A] | 7.00 to 8.00 | 9.00 to 10.00 | > 1
28 | COC(=O)N[C@H](C(=O)N1CCC[C@H]1c1ncc(-c2ccc(-c3ccc(-c4cnc(C5C6CCC(C6)[C@@H]5C(=O)NCc5cccnc5C(F)(F)F)[nH]4)cc3)cc2)[nH]1)[C@@H](C)OC (stereo partly drawn) [AA_255_A] | 7.00 to 8.00 | 10.00 to 12.00 | > 1
29 | COC(=O)N[C@H](C(=O)N1CCC[C@H]1c1[nH]c(-c2ccc(-c3ccc(-c4cnc([C@@H]5CCCN5C(=O)[C@@H](NC(=O)OC)[C@@H](C)O)[nH]4)cc3)cc2)c2c1COC2)C(C)C [AG_104] | 10.00 to 12.00 | 10.00 to 12.00 | > 1
